Laboratory results taken from the OPERA property sets (Mansouri et al. 2018).
Values after ≈ are worked out from the molar mass of the structure shown.

Compared with `CS(=O)CCCOc1ccc2ccccc2c1` (centres undefined), `Cc1ccc2ccc3ccccc3c2c1` is higher in logP: 2.42 for the first, 5.15 for the second.

First: COc1cc(S(C)=O)ccc1-c1cn2cccnc2n1 (centres undefined)
Second: CN(C)CCCN1c2ccccc2S(=O)c2ccc(Cl)cc21 (centres undefined)
The logP of the first is lower: 0.63 for the first, 2.32 for the second.

First: Clc1cc2c(Cl)cc(Cl)c(Cl)c2c(Cl)c1Cl
Second: Clc1cc2c(Cl)c(Cl)c(Cl)c(Cl)c2cc1Cl
The logP of the first is lower: 7.5 for the first, 7.7 for the second.

Going from `CCCCOCCNc1ccc(Cl)cc1C(N)=O` to `CCCCOc1ccc([N+](=O)[O-])cc1NC(C)=O`, the logP falls from 2.99 to 2.26.

Compared with `O=c1[nH]c(=O)n([C@H]2C[C@H](O)[C@@H](CO)O2)cc1I`, `OCC1CC(F)C(n2cnc3c(Cl)ncnc32)O1` (centres undefined) is higher in logP: -0.96 for the first, 0.32 for the second.

First: Cc1cccc(OCCN(C)C)c1
Second: CN(C)CCCN1c2cc(O)ccc2Sc2ccc(Cl)cc21
The logP of the first is lower: 2.05 for the first, 4.63 for the second.

Going from `CCCC[N+](C)(CCCC)CCCC.[I-]` to `CCCCCCCC`, the logP rises from 0.26 to 5.18.

Going from `CC(=O)OCN1Cc2ccccc2C1=O` to `CC(=O)OCN1C(=O)C=C(C)C1=O`, the logP falls from 0.99 to 0.45.

First: NS(=O)(=O)c1nn2c(=Nc3cccc(Cl)c3)snc2s1
Second: NS(=O)(=O)c1cc2c(cc1Cl)N=C(CSCc1ccccc1)NS2(=O)=O
The logP of the first is higher: 3.5 for the first, 1.73 for the second.

First: CC(=O)OCCN(CCC#N)c1ccc(N=Nc2nc3ccc([N+](=O)[O-])cc3s2)cc1
Second: CCCN1C(=O)C(=Cc2ccc([N+](=O)[O-])o2)SC1=NC(C)=O
The logP of the first is higher: 4.08 for the first, 1.17 for the second.

Going from `COc1ccc(N)c(S(=O)(=O)O)c1` to `COc1ccc(S(=O)(=O)c2coc(S(N)(=O)=O)c2)cc1`, the logP rises from -3.49 to 1.17.

First: C[Si](C)(C)O[Si](C)(C)O[Si](C)(C)C
Second: COC(=O)C(C)=CC1C(C(=O)OC)C1(C)C (centres undefined)
The logP of the first is higher: 6.6 for the first, 2.67 for the second.

First: CCC(CO)(CO)CO
Second: CCCCCCN1CC(C(=O)O)CC1=O (centres undefined)
The logP of the first is lower: -1.48 for the first, 1.6 for the second.

First: OCCN1CC=C(c2ccccc2)CC1
Second: CC(CC(=O)c1ccccc1)C(=O)O (centres undefined)
The logP of the first is higher: 2 for the first, 1.62 for the second.

First: CC1=CCC(C(C)(C)O)CC1 (centres undefined)
Second: Cc1ccc(C=[N+]([O-])C(C)(C)C)cc1
The logP of the first is higher: 2.98 for the first, 1.74 for the second.

Going from `CCNc1nc(N)nc(Cl)n1` to `Cc1cc(C)cc(NCc2cnc3nc(N)nc(N)c3c2C)c1`, the logP rises from 1.15 to 2.11.

First: N#CCCCCC#N
Second: N#CC(C#N)=Cc1ccc(I)o1
The logP of the first is lower: -0.32 for the first, 2.42 for the second.

First: Cc1c(Cl)ccc(Cc2ccc(Cl)cc2Cl)c1Cl
Second: Cc1cc(Cc2c(Cl)cccc2Cl)c(Cl)cc1Cl
The logP of the first is higher: 7.2 for the first, 6.73 for the second.

Going from `CC(C)COC(=O)c1cc(=O)[nH]c(=O)[nH]1` to `O=c1[nH]c(=O)c2[nH]c(=O)[nH]c2[nH]1`, the logP falls from 1.01 to -2.17.

Compared with `CN(C)c1ccc(N=C=S)cc1`, `CN(C)C(=O)Nc1ccc(Oc2ccc(Cl)cc2)cc1` is lower in logP: 3.96 for the first, 3.7 for the second.

`C=CC(=O)NCCCN1CCSCC1` and `CCN1CCC(CNC(=O)c2cc(S(N)(=O)=O)c(N)cc2OC)C1` (centres undefined) are within 0.2 log units of each other in logP: 0.54 for the first, 0.66 for the second.

First: COc1ccc2sc(C(=O)Nc3nnn[nH]3)c(OC(C)C)c2c1
Second: COc1nc(C)nc(NC(=O)NS(=O)(=O)c2ccccc2Cl)n1
The logP of the first is lower: 1.78 for the first, 2 for the second.

First: CC(=O)c1ccc2cc(C(C)C(=O)OCC(=O)N(C)C)ccc2c1 (centres undefined)
Second: CCOC(=O)c1ccccc1S(=O)(=O)NC(=O)Nc1nc(Cl)cc(OC)n1
The logP of the first is lower: 2.05 for the first, 2.5 for the second.

`CC(=O)CC(C)C` and `CC(=O)N[C@@H](Cc1ccc(O)cc1)C(=O)O` are within 0.2 log units of each other in logP: 1.31 for the first, 1.32 for the second.

Compared with `COc1ccc2c(c1)OCC1(O)c3cc4c(cc3OC21)OCO4` (centres undefined), `COc1cc2nc(N3CCN(C(=O)C4COc5ccccc5O4)CC3)nc(N)c2cc1OC` (centres undefined) is higher in logP: 2.58 for the first, 3.3 for the second.

Compared with `COc1cc(OC)ncn1`, `CCN(CC)C(=O)CCC(=O)OCn1ncc2c(O)ncnc21` is lower in logP: 0.96 for the first, -0.22 for the second.

Compared with `O=C(O)CCCCn1nnc2ccccc21`, `CCCCCOC(=O)c1cccnc1` is higher in logP: 0.48 for the first, 2.55 for the second.

First: N=C(N)NN=Cc1ccc(Cl)cc1
Second: Clc1cccc2c(Cl)cccc12
The logP of the first is lower: 0.96 for the first, 4.67 for the second.

Going from `CCCCN(CCC)N=O` to `CCN=c1nc(Cl)[nH]c(=NC(C)CC)[nH]1` (centres undefined), the logP rises from 2.09 to 2.61.

`CCOC1OC2OC3(C)CCC4C(CO)CCC(C1C)C24OO3` (centres undefined) and `C=C(Br)CC1(C(C)CC)C(=O)NC(=O)NC1=O` (centres undefined) are within 0.2 log units of each other in logP: 2.08 for the first, 2.2 for the second.

Going from `CC(Oc1ccc(Oc2ccc(C(F)(F)F)cn2)cc1)C(=O)O` (centres undefined) to `CC(O)CNc1ncc(-c2ccncc2)cc1C#N` (centres undefined), the logP falls from 3.18 to 0.79.

First: Cc1cccc([N+](=O)[O-])c1C
Second: COC(=O)Nc1cccc(F)c1
The logP of the first is higher: 2.83 for the first, 2.21 for the second.

Compared with `Clc1cc(Cl)c2cc(Cl)ccc2c1`, `Clc1cc(Cl)c2cc(Cl)cc(Cl)c2c1` is higher in logP: 5.35 for the first, 6.19 for the second.

First: c1ccc2c(c1)ccc1nc3c(ccc4ccccc43)cc12
Second: CNCCc1ccccn1
The logP of the first is higher: 5.73 for the first, 0.68 for the second.

First: Clc1c(Cl)c(Cl)c2c(oc3c(Cl)c(Cl)c(Cl)c(Cl)c32)c1Cl
Second: Cc1c(O)c(=O)ccn1CCO
The logP of the first is higher: 8.6 for the first, -1.1 for the second.

Going from `O=C(O)c1cc[n+]([O-])cc1` to `Cc1cccc(NC(=O)c2ccccc2C(=O)O)c1`, the solubility falls from 79.1 mM (≈ 11000 µg/mL) to 3.92 mM (≈ 1000 µg/mL) (20-fold).

`CC(=O)OCCN(CCC#N)c1ccc(N=Nc2nc3ccc([N+](=O)[O-])cc3s2)cc1` and `Clc1cccc2c(Cl)cccc12` are within 1.5-fold of each other in solubility: 0.00157 mM (≈ 0.69 µg/mL) for the first, 0.00192 mM (≈ 0.379 µg/mL) for the second.

Compared with `CCNc1nc(N)nc(Cl)n1`, `COCCCNc1nc(NCCCOC)nc(SC)n1` is 12-fold lower in solubility: 3.86 mM (≈ 670 µg/mL) for the first, 0.332 mM (≈ 100 µg/mL) for the second.

First: Clc1cc(Cl)c2cc(Cl)ccc2c1
Second: O=P1(N(CCCl)CCCl)NCCCO1 (centres undefined)
The solubility of the first is far lower: 0.000278 mM (≈ 0.0644 µg/mL) for the first, 153 mM (≈ 40000 µg/mL) for the second.

Compound `COC(=O)CCC(=O)OC` has a solubility of 171 mM (≈ 25000 µg/mL).
